“And” between values parts separate entries of the source, which are not always exact repeats. Identical values can stand only once.
Experiments:
[1] = system: donor lymphocytes and platelets; assay type: cell-based, human
Text: The PIF assay, as disclosed in U.S. Pat. No. 5,646,003 to Barnea et al., entitled “Preimplantation Factor” issued Jul. 9, 1997, and in U.S. Pat. No. 5,981,198 to Barnea et al., entitled “Preimplantation Factor” granted Nov. 9, 1999, the disclosures of which are incorporated herein by reference in their entirety, may be used to measure the response of the immune system to pregnancy specific preimplantation factors. […] Lymphocyte-platelet rosettes result from the interaction of the T cell surface protein CD2 with its ligand CD58 expressed on the platelet membrane. Anti-CD2, by binding to the CD2 antigen on the T cells, inhibits their interaction with platelets.
(§1) Human PBMC were isolated by the Ficoll method. FITC-labeled nPIF-115 (SEQ ID NO: 1) and (FITC)-labeled scrPIF-1 (SEQ ID NO:5) and match-size irrelevant peptide (FITC)-labeled negative controls negPIF-1(15) (SEQ ID NO:11), were dissolved in PBS at concentrations ranging from 0.75 to 48.19 μM, and were incubated with 500,000 lymphocytes for 1 h at room temperature. The cells were washed 6 times with PBS and resuspended in 500 μl of the same buffer. T-cells and monocytes identification was performed in independent experiments by incubation with anti-CD3 and anti-CD14 antibody-phycoerithryn (PE) labeled. nPIF-115 (SEQ ID NO: 1) binding to PBMC was determined by flow cytometry. In addition, rosettes formed by T cell-platelets were detected by flow cytometry using anti-CD3 antibody-PE and anti-CD41a antibody-FITC (all antibodies were from Pharmingen Inc.).

[2] = system: PBMC; assay: FITC-labeled PIF binding to PBMC subpopulations (flow cytometry); design: species or system human
Protocol: Expression of PIF-1(15) (SEQ ID NO:1), receptor following PHA induced PBMC proliferation CD-4 T cells; CD-8 T cells; NK cell and B cells (unstimulated-top); (PHA stimulated-bottom). Flow cytometry analysis of PBMC following exposure to FITC sPIF-1(15) (SEQ ID NO:13) % expression was determined in PBMC subtypes before and after exposure to 1 ug/ml PHA for 24 hours.
as §1
Using flow cytometry fluoroscein-labeled sPIF-115 (SEQ ID NO: 13) binding to immune cells was examined on resting PBMC.

[3] = system: PBMC; assay: PIF and analogues on release of cytokines +/- platebound mAbCD3 (Table 4); assay type: cell-based; design: IL-1β / TNFa / IL-4 / IL-5 / IL-6 / IL-10 / GM-CSM / IFN-g: unit not given here
[4] = system: THP1 a monocyte cell line; settings: 1-100 nM, no mitogen
Text: The effect of PIF-1 was examined on THP1 a monocyte cell line (Dr Sharma Brown Univ).

[5] = system: CD3; assay: CD3 expression in PBMC (flow cytometry, MAbCD3-PE); assay type: cell-based; settings: PBMC exposed 3 days, 2-200 nM
Protocol: Fluorescent PIF peptides bind to immune cell membranes following activation. […] CD69 is expressed during activation of lymphocytes and monocytes, and is a marker of NK cells activation. CD25 is the receptor for IL-2, and a known activation marker as well. […] The expression of CD3 in PBMC was examined following exposure for 3 days to sPIF-1(15) (SEQ ID NO:13) (2-200 nM) using 20 ul MAbCD3-PE (BD).

[6] = system: CD2; assay: CD2 expression in PBMC (flow cytometry, CD2MAb-FITC); assay type: cell-based; settings: PBMC exposed 3 days
[7] = system: PIF-1 polyclonal antibody; assay: PIF-1 competitive ELISA, biotin labeled versus unlabeled peptide; assay type: binding, rabbits; settings: 4.5 ug/ml pAb coating concentration; read-out: IC50 of dose response curve
[8] = system: mice; assay: Subcutaneous osmotic mini-pump administration in mated mice, implantation sites; assay type: in vivo
Protocol: Preliminary in vivo assessment of PIF-1 antagonist by using PIF1scr/amide was performed. […] Following the protocol below: (Dr Hoberman, Argus, Inc) PIF-1scr/amide was introduced two days after estrus to mice through an osmotic mini-pump (Alzet Model 2001; 1 ul/hr for 7 days) containing either 0.9% saline or 150 ug or 800 ug PIF-1scr/amide/day release in saline. The pumps were inserted subcutaneously under ketamine/xylazine anesthesia. Female mice were placed with male mice on the third day afternoon of the expected estrus. Four different groups 5 each were studied, low and high dose PIF-1scr/amide, saline control, and one group with PIF-1. Mating was confirmed by the presence of sperm in the vagina or a copulatory plug the next morning. Pregnancy (or lack thereof) was determined by sacrificing on day 10 after breeding and the uterine horns were examined for implantation sites by using Chicago Blue solution.
The group treated with PIF-1 160 ug/kg/day appeared to have increased number of implantation sites and this was associated with a higher rate of fetal survival compared to vehicle treated controls.

[9] = system: 46 different kinases
Protocol: The effect of PIF-1 on kinases related to metabolic function was examined. The methodology for testing PIF activity on MEK1 kinase is described below, but it is applicable for all kinases tested: 50 nM Tris pH, 0.1 mM EGTA 0.10% b-mercaptoethanol 1 mg/mg BSA PIF-1 15 was dissolved in deionised water at 5 nM-5 uM range of concentrations. […] (SEQ ID NO: 23), 10 mM Mg Acetate and [gamma-33P-ATP] 500 cpm/pmol. Reaction initiated with addition of MgATP. After 40 minutes incubation at room temperature, reaction stopped by the addition of 5 ul of a 3% phosphoric acid solution. 10 ul of the reaction is spotted onto a P30 filtermat and washed three times for 5 min in 75 mM phosphoric acid and once in methanol prior to drying and scintillation counting.
The effects of PIF on 46 different kinases (listed below in Table 5) related to metabolic function were tested.

[10] = PBMC within 24 hrs of PHA activation
[11] = 160 ug/kg/day, compared to vehicle treated controls

With MVRIKPGSANKPSDD [sPIF-1(15)] the “Increase in Rosette Formation” value [1] was >370% and >288% and >208%, the “increase in the number of rosettes in the presence of the anti-CD2 antibody” value [1] was “four-fold increase” and the “fluorescence-labeled peptide binding to human lymphocytes” value ([2]; FIG. 1(A)) was “dose dependent manner”. For the same sequence, the “B cells positive for fluorescent PIF binding” value [2, 10] was greater than 90%, the “T lymphocytes positive for fluorescent PIF binding” value [2, 10] was 60-80% and the binding to platelets ([2]; basal state) was “not to platelets”. The binding to monocytes ([2]; basal state, unstimulated PBMC) was “binds all monocytes”, the “binding to NK cells” value ([2]; even after several days in culture with PHA) was “did not appear to bind” and the “binding site expression on resting T cells (CD4+, CD8+), B cells (CD19+), NK cells (CD56)” value ([2]; resting PBMC) was “very low”. For the same sequence, the GM-CSM ([3]; C- (platebound mAbCD3), /1) was 20.7, the IFN-g ([3]; C- (platebound mAbCD3), /1) was 122.6 and the IL-1β ([3]; C- (platebound mAbCD3), /1) was 3.4. For the same sequence, the IL-2 ([3]; C- (platebound mAbCD3), /1) was 21.4, the IL-4 ([3]; C- (platebound mAbCD3), /1) was 17.2 and the IL-5 ([3]; C- (platebound mAbCD3), /1) was 0. For the same sequence, the IL-6 ([3]; C- (platebound mAbCD3), /1) was 204.2, the IL-8 ([3]; C- (platebound mAbCD3), /1) was greater than 5000 and the IL-10 ([3]; C- (platebound mAbCD3), /1) was 72.9. The TNFa ([3]; C- (platebound mAbCD3), /1) was 135.7, the GM-CSM ([3]; C- (platebound mAbCD3), /50) was 29.1 and the IFN-g ([3]; C- (platebound mAbCD3), /50) was 130.3. For the same sequence, the IL-1β ([3]; C- (platebound mAbCD3), /50) was 4.4, the IL-2 ([3]; C- (platebound mAbCD3), /50) was 31.0 and the IL-4 ([3]; C- (platebound mAbCD3), /50) was 17.9. For the same sequence, the IL-5 ([3]; C- (platebound mAbCD3), /50) was 0, the IL-6 ([3]; C- (platebound mAbCD3), /50) was 287.7 and the IL-8 ([3]; C- (platebound mAbCD3), /50) was greater than 5000. It also gave an IL-10 ([3]; C- (platebound mAbCD3), /50) of 77.0, a TNFa ([3]; C- (platebound mAbCD3), /50) of 223.5 and a GM-CSM ([3]; U- (no mAbCD3), /1) of 12.5. For the same sequence, the IFN-g ([3]; U- (no mAbCD3), /1) was 0, the IL-1β ([3]; U- (no mAbCD3), /1) was 0 and the IL-2 ([3]; U- (no mAbCD3), /1) was 19.9. The IL-4 ([3]; U- (no mAbCD3), /1) was 0, the IL-5 ([3]; U- (no mAbCD3), /1) was 0 and the IL-6 ([3]; U- (no mAbCD3), /1) was 32.2. For the same sequence, the IL-8 ([3]; U- (no mAbCD3), /1) was 963.0, the IL-10 ([3]; U- (no mAbCD3), /1) was 0 and the TNFa ([3]; U- (no mAbCD3), /1) was 0. It also gave a GM-CSM ([3]; U- (no mAbCD3), /50) of 0, an IFN-g ([3]; U- (no mAbCD3), /50) of 0 and an IL-1β ([3]; U- (no mAbCD3), /50) of 0. For the same sequence, the IL-2 ([3]; U- (no mAbCD3), /50) was 0, the IL-4 ([3]; U- (no mAbCD3), /50) was 0 and the IL-5 ([3]; U- (no mAbCD3), /50) was 0. For the same sequence, the IL-6 ([3]; U- (no mAbCD3), /50) was 37.8, the IL-8 ([3]; U- (no mAbCD3), /50) was 1426.7 and the IL-10 ([3]; U- (no mAbCD3), /50) was 0. For the same sequence, the TNFa ([3]; U- (no mAbCD3), /50) was 0, the IL10 secretion [4] was “dose dependent increase” and the “increase in CD3 receptor expression” value [5] was 215-420%. For the same sequence, the “increase in CD2 expression” value [6] was 170-200%, the IC50 [7] was 0.5 to 0.7 nM and the “number of implantation sites” value [8, 11] was “increased”. For the same sequence, the “rate of fetal survival” value [8, 11] was “higher rate”, the “effect on maternal body weights” value ([8]; all tested groups) was “no effect” and the “effect on mouse fetuses number” value ([8]; early pregnancy) was “no significant effect”. For the same sequence, the “toxic effects following administration in early pregnancy” value ([8]; pregnant mice) was “no toxic effects” and the “interaction with kinases related to metabolic function” value [9] was “does not interact with any of kinases”.

Source: patent US7723289B2, “PIF tetrapeptides” (BioIncept, LLC, priority 2003, dated 2010)
